Assay results as given in patent US6355616B1, “Derivative compounds derived from or based on bactericidal/permeability-increasing protein” (priority 1999, dated 2002).
Like-named read-outs stand apart in the source and are kept apart here. Non-standard residues stand in square brackets, D forms with d. Residues, ends and D or L forms follow the SMILES beside them. Aoc = NCCCCCCCC(=O)O

How the values were obtained:
Candida albicans, SLU-1 = assay: 28-day comparative survival efficacy study in mice systemically infected with Candida albicans; assay type: in vivo, male DBA/2 mice; details: for improvement in mortality compared with dextrose-treated controls: mice infected iv with C. albicans SLU-1, two doses less than 5 mg/kg, initial experiments (p>0.5)
Procedure: Derivatized peptide-based constructs are tested for activity upon oral administration (oral activity) in a 28-day comparative survival efficacy study in mice systemically infected with Candida albicans. Specifically, male DBA/2 mice (Charles River Laboratories) six weeks of age are dosed with 7.9×10^4 Candida albicans, SLU-1 in 100 μL intravenously via the tail vein in a single dosage on day zero (0). However, other routes of administration, including intraperitoneal (ip) and subcutaneous (sc) routes may be administered. Amphotericin B will provide complete protection at 0.5 mg/kg qod (100% survival). Mortality data will be subjected to Kaplan-Meier survival analysis. All treatment groups may be considered statistically significant vs. saline at p values <0.05.
Treatment begins immediately thereafter with 400 μL oral gavage of either 0.5% dextrose, or derivative compound in 0.5% dextrose at various dosage levels (e.g., 10 mg/kg or 20 mg/kg) according to a prescribed dosing regimen (e.g. every other day for a total of eight times). Amphotericin B (Fungizone®) is administered intravenously at 0.5 mg/kg as a positive control every other day for a total of eight times. Twice-day monitoring (once daily on weekends and holidays) for mortality is performed. The animals treated with antiflngal derivative compound show improvement in mortality compared with the dextrose-treated controls, preferably statistically significant improvement (p-value of […]).

Candida albicans SLU-1 = assay: Radial diffusion assay; assay type: cell-based
Procedure: In the radial diffusion assay procedures, the CA-1 cultures and derivatized peptide solutions were prepared as in the broth microdilution assay procedure described above, i.e., CA-1 was grown to exponential phase in SDB. Ten (10) mL of molten underlayer agarose comprising 3% Sabouraud Dextrose broth, 1% agarose (Pharmacia, Piscataway, N.J.), 0.02% Tween 20, and 10 mM sodium phosphate at pH 7.4, was added to polystyrene tubes and maintained in a 56° C. water bath until the addition of yeast. Tubes were cooled to approximately 45° C., yeast were added to give a final concentration of 1×10^6 CFU/mL, and the tubes were mixed again by inverting. The contents were poured into leveled, square petri dishes and distributed evenly. […] A series of wells were punched into the hardened agarose using a sterile 3 mm punch attached to a vacuum apparatus to achieve a uniform, 3 mm diameter well.
Derivatized peptide sequences to be assayed were 2-fold serially diluted in 10 mM Dulbecco's PBS (D-PBS) starting from a concentration of approximately […]. Five μL of each dilution were added to each well and the plates were incubated at 37° C. for 3 hours to allow for complete diffusion of the test compounds. An overlayer of 10 mL of molten agarose comprising 6% Sabouraud Dextrose broth, 1% agarose, and 10 mM sodium phosphate, pH 7.4, (at approximately 45° C.) was then added and plates were incubated overnight at 37° C. Following this overnight incubation, a dilute Coomassie solution was poured into the plates and allowed to stain for 24 hours to enhance visualization of the zones.
Clear zones of growth inhibition around each well were measured with calipers. The actual area of growth inhibition (mm^2) was calculated by subtracting the area of the well. Table II below sets out the results of the radial diffusion assays for a series of tested peptide-based constructs in terms of the number of picomoles (pmol) of compound required to establish a 30 mm^2 area of growth inhibition of Candida albicans SLU-1 calculated by PROBIT analysis (e.g., calculated from regression of the linear portion of log-concentration dose-response curve, log pmol/well vs. net area of inhibition).

[1] = test system: Candida albicans designated CA-1, Strain SLU-1; assay type: cell-based
Procedure: In each broth microdilution assay screening procedure, a colony of Candida albicans designated CA-1, Strain SLU-1 that was received from the laboratories of G. Matuschak and A. Lechner, St. Louis University Hospital, St. Louis, Mo., where the strain was maintained, was inoculated into a tube containing 5 mL Sabouraud Dextrose broth (2% dextrose, 1% neopeptone) and incubated at 37° C. with shaking. The overnight culture was diluted 1:50 into 5 ml of fresh broth and incubated for 3 hours at 37° C. to exponential phase growth. Organisms were pelleted by centrifugation in a Beckman J-6M centrifuge for 5 minutes at 3000 rpm (1500×g) and the pellets were resuspended in 5 mL phosphate buffered saline (PBS) and the optical density (OD) at 570 nm was determined. On the basis of the determination that one OD unit equals 3×10^7 colony forming units/mL (CFU/mL), yeast cells were diluted to 5×10^3 CFU/mL in Sabouraud Dextrose broth (SBD).
Derivatized peptide sequences based on Domain III of BPI to be screened which were originally constituted in Dulbecco's-PBS, were two-fold serially diluted in SDB starting from a concentration of 128 μg/mL. Equal volumes (100 μL) of yeast suspension as prepared above and derivatized peptide solution were added to wells of a 96-well sterile, flat bottom, non-pyrogenic tissue culture microtiter plate (Costar, Cambridge, Mass.) to reach a final volume of 200 μL/well. The plate was incubated on a shaker at 37° C. for 24 hours. All assays were performed in triplicate. Following the incubation period, plates were read in an ELISA plate reader at 595 nm wavelength to determine the minimum inhibitory concentration (MIC), i.e., the lowest concentration required to reduce the optical density at 595 nm to below 0.1 OD.

[2] = 30 mm^2 area of growth inhibition, calculated by PROBIT analysis
[3] = designated CA-1, Strain SLU-1, 24 h

Compound | Radial Diffusion (pmol to achieve 30 mm^2 zone C. albicans SLU1) (Candida albicans SLU-1; [2]) | Broth Microdilution (MIC values in μg/mL C. albicans SLU1) [1, 3] | other results
C[C@@H]1[C@H](O)[C@@H](C)/C=C/C=C/C=C/C=C/C=C/C=C/C=C/[C@H](O[C@@H]2O[C@H](C)[C@@H](O)[C@H](N)[C@@H]2O)C[C@@H]2O[C@](O)(C[C@@H](O)C[C@@H](O)[C@H](O)CC[C@@H](O)C[C@@H](O)CC(=O)O[C@H]1C)C[C@H](O)[C@H]2C(=O)O [Amphotericin B, reference compound] |  |  | survival (Candida albicans, SLU-1; 0.5 mg/kg qod, positive control, 'will provide complete protection'): 100%
CC[C@@H](C)[C@@H](NC(=O)[C@@H](CC(C)C)NC(=O)[C@@H](Cc1c[nH]c2ccccc12)NC(=O)[C@@H](CCCCN)NC(=O)CCCCCCCN)C(=O)N[C@H](CCC(N)=O)C(=O)N[C@H](CC(C)C)C(=O)N[C@H](Cc1ccccc1)C(=O)N[C@H](Cc1c[nH]cn1)C(=O)N[C@H](CCCCN)C(=O)N[C@H](CCCCN)C(N)=O [XMP.416] (H-[Aoc][dK][dW][dL][dI][dQ][dL][dF][dH][dK][dK]-NH2) | 410 pmol | 1 µg/mL | 
CC[C@@H](C)[C@@H](NC(=O)[C@@H](CC(C)C)NC(=O)[C@@H](Cc1c[nH]c2ccccc12)NC(=O)[C@@H](CCCCN)NC(=O)c1c[nH]cn1)C(=O)N[C@H](CCC(N)=O)C(=O)N[C@H](CC(C)C)C(=O)N[C@H](Cc1ccccc1)C(=O)N[C@H](Cc1c[nH]cn1)C(=O)N[C@H](CCCCN)C(=O)N[C@H](CCCCN)C(N)=O [XMP.500] |  |  | improvement in mortality compared with dextrose-treated controls (Candida albicans, SLU-1): did not exhibit statistically significant improvement
CC[C@@H](C)[C@@H](NC(=O)[C@@H](CC(C)C)NC(=O)[C@@H](Cc1c[nH]c2ccccc12)NC(=O)[C@@H](CCCCN)NC(C)=O)C(=O)N[C@H](CCC(N)=O)C(=O)N[C@H](CC(C)C)C(=O)N[C@H](Cc1ccccc1)C(=O)N[C@H](Cc1c[nH]cn1)C(=O)N[C@H](CCCCN)C(=O)N[C@H](CCCCNC(=O)CCCC[C@@H]1SC[C@@H]2NC(=O)N[C@@H]21)C(N)=O [XMP.518] | 484 pmol | 8 µg/mL | 
CC[C@@H](C)[C@@H](NC(=O)[C@@H](CC(C)C)NC(=O)[C@@H](Cc1c[nH]c2ccccc12)NC(=O)[C@@H](CCCCN)NC(C)=O)C(=O)N[C@H](CCC(N)=O)C(=O)N[C@H](CC(C)C)C(=O)N[C@H](Cc1ccccc1)C(=O)N[C@H](Cc1c[nH]cn1)C(=O)N[C@H](CCCCNC(=O)CCCC[C@@H]1SC[C@@H]2NC(=O)N[C@@H]21)C(=O)N[C@H](CCCCN)C(N)=O [XMP.521] | 959 pmol | 16 µg/mL | 
CC[C@@H](C)[C@@H](NC(=O)[C@@H](CC(C)C)NC(=O)[C@@H](Cc1c[nH]c2ccccc12)NC(=O)[C@@H](CCCCN)NC(=O)c1cc2ccccc2o1)C(=O)N[C@H](CCC(N)=O)C(=O)N[C@H](CC(C)C)C(=O)N[C@H](Cc1ccccc1)C(=O)N[C@H](Cc1c[nH]cn1)C(=O)N[C@H](CCCCN)C(=O)N[C@H](CCCCN)C(N)=O [XMP.536] | >3,371 pmol | 4 µg/mL | 
CC[C@@H](C)[C@@H](NC(=O)[C@@H](CC(C)C)NC(=O)[C@@H](Cc1c[nH]c2ccccc12)NC(=O)[C@@H](CCCCN)NC(=O)c1cc2ccccc2[nH]1)C(=O)N[C@H](CCC(N)=O)C(=O)N[C@H](CC(C)C)C(=O)N[C@H](Cc1ccccc1)C(=O)N[C@H](Cc1c[nH]cn1)C(=O)N[C@H](CCCCN)C(=O)N[C@H](CCCCN)C(N)=O [XMP.545] | 1,635 pmol | 8 µg/mL | 
CC[C@@H](C)[C@@H](NC(=O)[C@@H](CC(C)C)NC(=O)[C@@H](Cc1c[nH]c2ccccc12)NC(=O)[C@@H](CCCCN)NC(=O)c1nccc2ccccc12)C(=O)N[C@H](CCC(N)=O)C(=O)N[C@H](CC(C)C)C(=O)N[C@H](Cc1ccccc1)C(=O)N[C@H](Cc1c[nH]cn1)C(=O)N[C@H](CCCCN)C(=O)N[C@H](CCCCN)C(N)=O [XMP.546] | >3,371 pmol | >64 µg/mL | 
CC[C@@H](C)[C@@H](NC(=O)[C@@H](CC(C)C)NC(=O)[C@@H](Cc1c[nH]c2ccccc12)NC(=O)[C@@H](CCCCN)NC(=O)c1ccc2ccccc2n1)C(=O)N[C@H](CCC(N)=O)C(=O)N[C@H](CC(C)C)C(=O)N[C@H](Cc1ccccc1)C(=O)N[C@H](Cc1c[nH]cn1)C(=O)N[C@H](CCCCN)C(=O)N[C@H](CCCCN)C(N)=O [XMP.596] | 3,140 pmol | 2 µg/mL | 
CC[C@@H](C)[C@@H](NC(=O)[C@@H](CC(C)C)NC(=O)[C@@H](Cc1c[nH]c2ccccc12)NC(=O)[C@@H](CCCCN)NC(=O)c1cccc(Cl)c1[N+](=O)[O-])C(=O)N[C@H](CCC(N)=O)C(=O)N[C@H](CC(C)C)C(=O)N[C@H](Cc1ccccc1)C(=O)N[C@H](Cc1c[nH]cn1)C(=O)N[C@H](CCCCN)C(=O)N[C@H](CCCCN)C(N)=O [XMP.618] | 2,146 pmol | 4 µg/mL | 
XMP.503: R1 = pyridine carbonyl, R2 = R3 = H (KWLIQLFHKK; XMP.503; Position 1 is derivatized at the alpha-amino with: pyridine carbonyl; Positions 1-10 are D-Amino Acids; AMIDATION=The C-terminus is Amidated) |  |  | improvement in mortality compared with dextrose-treated controls (Candida albicans, SLU-1): did not exhibit statistically significant improvement
XMP.535: peptide-based construct; derivatization not given in Table I (KWLIQLFHKK; XMP.535; Position 1 is derivatized at the alpha-amino with: anthraquinone carbonyl; Positions 1-10 are D-Amino Acids; AMIDATION=The C-terminus is Amidated) |  |  | Radial Diffusion (pmol to achieve 30 mm^2 zone C. albicans SLU1) (Candida albicans SLU-1): b (no detectable activity up to 5 μg/well); Broth Microdilution (MIC values in μg/mL C. albicans SLU1) ([1]; C. albicans SLU1): b (no detectable activity up to 5 μg/well)
